# Biological target: T1, GCS (Canis lupus familiaris, UniProt A0A8I3MXG6)
# T1 construct: endogenous in cells; host or cells: MDCK (Madin-Darby canine kidney) cells, whole-cell lysate
# T1 sequence (A0A8I3MXG6 1-394): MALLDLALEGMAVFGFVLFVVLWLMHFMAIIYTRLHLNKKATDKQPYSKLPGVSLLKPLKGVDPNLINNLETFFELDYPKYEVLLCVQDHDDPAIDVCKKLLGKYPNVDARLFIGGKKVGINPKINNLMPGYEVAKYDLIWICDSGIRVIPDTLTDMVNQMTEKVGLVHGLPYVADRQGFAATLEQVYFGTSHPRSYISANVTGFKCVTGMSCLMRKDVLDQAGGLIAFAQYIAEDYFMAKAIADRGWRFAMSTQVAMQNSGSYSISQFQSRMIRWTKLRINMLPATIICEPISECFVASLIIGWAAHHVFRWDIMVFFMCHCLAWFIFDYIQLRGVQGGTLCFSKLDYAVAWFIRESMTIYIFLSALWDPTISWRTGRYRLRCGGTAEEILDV
# Test: GCS enzymatic assay (MDCK cell lysate, NBD-ceramide to glucosylceramide, LC/MS)
# Format: biochemical, canine
# Conditions: Table 2; class symbols A, B, C; the table does not say which of the assays; read-out: Data Range (IC50 values)
# Description: This assay was modified based on the study by Larsen et al. (J. Lipid Res. 2011, 53, 282). Madin-Darby canine kidney (MDCK) cell lysate was prepared using M-PER Mammalian Protein Extraction Reagent (Thermal Scientific) in the presence of a protease inhibitor cocktail (Roche). Protein concentration was determined using BCA assay kit (Pierce). […] 0.1% DMSO was used as mock treatment or control. The reaction was terminated by adding 100 μL acetonitrile solution and subjected to LC/MS analysis.
# The quantitative analysis of NBD-Ceramide and glucosylceramide was performed on a Shimadzu ultra-fast liquid chromatography (Shimadzu, Japan) coupled with API 4000 triple quadrupole mass spectrometer (Applied Biosystems, Concord, Ontario, Canada). Sample separation was conducted on a Waters Xbridge™ BEH130 C18, 100 mm×4.6 mm i.d, 3.5 μm (Milford, Mass., USA). The mobile phase consisted of water and acetonitrile supplemented with 0.1% formic acid (v/v). The flow rate was 1.0 mL/min. The initial mobile phase was 20% acetonitrile and was ramped in a linear fashion to 50% acetonitrile in 0.4 min. From 0.4 to 1.5 min, the gradient was ramped to 98% acetonitrile, and then was held at […] until 8.0 min. Acetonitrile was reset to 20% in 1.5 min, and maintained until 10.0 min. The total run time was 10.0 min. The MS/MS detection was performed in ESI positive mode. The mass transition of NBD-Ceramide was m/z 576.36→558.40 under the collision energy of 15 V, and the mass transition of glucosylceramide was m/z 738.35→558.40 under 21V collision energy. The cell lysate was diluted with equal volume of acetonitrile. Aliquots of 50 μL diluted samples were added to 1.5 mL tubes, and 100 μL of acetonitrile containing internal standard (100 ng/mL tolbutamide) were added for protein precipitation. The mixture were vortexed and then centrifuged at 13000 rpm for 10 min. 70 μL of supernatant were mixed with 140 μL of H2O and the final solution were injected for LC/MS/MS analysis and IC50's and/or percent inhibitions calculated.
row,SMILES,IC50
1,"O=C(N[C@H](CN1CCCC1)[C@H](O)c1ccc(OC2CCOCC2)c(Cl)c1)[C@@H]1CCN(c2ccc(F)cc2)C1 [Compound 32, (R)-N-((1R,2R)-1-(3-chloro-4-((tetrahydro-2H-pyran-4-yl)oxy)phenyl)-1-hydroxy-3-(pyrrolidin-1-yl)propan-2-yl)-1-(4-fluorophenyl)pyrrolidine-3-carboxamide]",0.001 to 0.03 µM
2,"CC(C)Oc1ccc([C@@H](O)[C@@H](CN2CCCC2)NC(=O)[C@@H]2CCN(c3ccc(F)cc3)C2)cn1 [Compound 31, (R)-1-(4-fluorophenyl)-N-((1R,2R)-1-hydroxy-1-(6-isopropoxypyridin-3-yl)-3-(pyrrolidin-1-yl)propan-2-yl)pyrrolidine-3-carboxamide]",0.1 to 1 µM
3,"O=C(N[C@H](CN1CCCC1)[C@H](O)c1ccc(OC2CCCC2)c(Cl)c1)[C@@H]1CCN(c2ccc(Cl)cc2)C1 [Compound 141, (R)-N-((1R,2R)-1-(3-chloro-4-(cyclopentyloxy)phenyl)-1-hydroxy-3-(pyrrolidin-1-yl)propan-2-yl)-1-(4-chlorophenyl)pyrrolidine-3-carboxamide]",0.03 to 0.1 µM
4,"O=C(N[C@H](CN1CCCC1)[C@H](O)c1ccc(OC2CC2)c(Cl)c1)[C@@H]1CCN(c2cccc(-c3ccc(F)cc3)n2)C1 [Compound 126, (R)-N-((1R,2R)-1-(3-chloro-4-cyclopropoxyphenyl)-1-hydroxy-3-(pyrrolidin-1-yl)propan-2-yl)-1-(6-(4-fluorophenyl)pyridin-2-yl)pyrrolidine-3-carboxamide]",0.001 to 0.03 µM

# Next, values leading:
row,IC50,SMILES
1,0.001 to 0.03 µM,"O=C(N[C@H](CN1CCCC1)[C@H](O)c1ccc2c(c1)OCCO2)C1CCN(c2ccc(Cl)cc2)C1 (stereo partly drawn) [Compound 1C, 1-(4-chlorophenyl)-N-((1R,2R)-1-(2,3-dihydrobenzo[b][1,4]dioxin-6-yl)-1-hydroxy-3-(pyrrolidin-1-yl)propan-2-yl)pyrrolidine-3-carboxamide]"
2,0.001 to 0.03 µM,"O=C(N[C@H](CN1CCCC1)[C@H](O)c1ccc2c(c1)OCCO2)[C@H]1CCN(c2ccc3ccsc3c2)C1 [Compound 53D, (S)-1-(benzo[b]thiophen-6-yl)-N-((1R,2R)-1-(2,3-dihydrobenzo[b][1,4]dioxin-6-yl)-1-hydroxy-3-(pyrrolidin-1-yl)propan-2-yl)pyrrolidine-3-carboxamide]"
3,0.001 to 0.03 µM,"O=C(N[C@H](CN1CCCC1)[C@H](O)c1cc(F)c2c(c1)OCCO2)[C@@H]1CCN(c2ccc3ccsc3c2)C1 [Compound 97, (R)-1-(benzo[b]thiophen-6-yl)-N-((1R,2R)-1-(8-fluoro-2,3-dihydrobenzo[b][1,4]dioxin-6-yl)-1-hydroxy-3-(pyrrolidin-1-yl)propan-2-yl)pyrrolidine-3-carboxamide]"
4,0.001 to 0.03 µM,"O=C(N[C@H](CN1CCCC1)[C@H](O)c1ccc2c(c1)OCCO2)[C@@H]1CCN(c2ccc3ccccc3c2)C1 [Compound 70, (R)-N-((1R,2R)-1-(2,3-dihydrobenzo[b][1,4]dioxin-6-yl)-1-hydroxy-3-(pyrrolidin-1-yl)propan-2-yl)-1-(naphthalen-2-yl)pyrrolidine-3-carboxamide]"

# Same assay, conditions: Table 2; class symbols D, E, F, NA (not active); the table does not say which of the assays
row,SMILES,Data Range (% inhibition)
1,"O=C(N[C@H](CN1CCCCC1)[C@H](O)c1ccc2c(c1)OCCO2)[C@H]1CCN(c2ccc(F)cc2)C1 [Compound 46B, (S)-N-((1R,2R)-1-(2,3-dihydrobenzo[b][1,4]dioxin-6-yl)-1-hydroxy-3-(piperidin-1-yl)propan-2-yl)-1-(4-fluorophenyl)pyrrolidine-3-carboxamide]",NA (not active—a negative value was generated for % inhibition)
2,"O=C(N[C@H](CN1CCCC1)[C@H](O)c1ccc(OCC(F)(F)F)nc1)[C@H]1CCN(c2ccc(F)cc2)C1 [Compound 34A, (S)-1-(4-fluorophenyl)-N-((1R,2R)-1-hydroxy-3-(pyrrolidin-1-yl)-1-(6-(2,2,2-trifluoroethoxy)pyridin-3-yl)propan-2-yl)pyrrolidine-3-carboxamide]",NA (not active—a negative value was generated for % inhibition)
3,"O=C(N[C@H](CN1CCCC1)[C@H](O)c1ccc2c(c1)OCCO2)[C@@H]1CCN(c2ccc(OC3CC3)nc2)C1 [Compound 58, (R)-1-(6-cyclopropoxypyridin-3-yl)-N-((1R,2R)-1-(2,3-dihydrobenzo[b][1,4]dioxin-6-yl)-1-hydroxy-3-(pyrrolidin-1-yl)propan-2-yl)pyrrolidine-3-carboxamide]",E (50-74% (or less than 75%))
4,"O=C(N[C@H](CN1CCCC1)[C@H](O)c1ccc(OC2CC2)c(Cl)c1)[C@H]1CCN(c2ccccn2)C1 [Compound 54A, (S)-N-((1R,2R)-1-(3-chloro-4-cyclopropoxyphenyl)-1-hydroxy-3-(pyrrolidin-1-yl)propan-2-yl)-1-(pyridin-2-yl)pyrrolidine-3-carboxamide]",F (1-49% (or less than 50%))
5,"O=C(N[C@H](CN1CCCC1)[C@H](O)c1ccc(OC2CC2)nc1)[C@H]1CCN(c2ccc(F)cc2)C1 [Compound 27C, (S)-N-((1R,2R)-1-(6-cyclopropoxypyridin-3-yl)-1-hydroxy-3-(pyrrolidin-1-yl)propan-2-yl)-1-(4-fluorophenyl)pyrrolidine-3-carboxamide]",F (1-49% (or less than 50%))
6,"O=C(N[C@H](CN1CCCC1)[C@H](O)c1ccc2c(c1)OCCO2)[C@@H]1CCN(C2Cc3ccccc3C2)C1 [Compound 55, (R)-1-(2,3-dihydro-1H-inden-2-yl)-N-((1R,2R)-1-(2,3-dihydrobenzo[b][1,4]dioxin-6-yl)-1-hydroxy-3-(pyrrolidin-1-yl)propan-2-yl)pyrrolidine-3-carboxamide]",F (1-49% (or less than 50%))
7,"O=C(N[C@H](CN1CCCC1)[C@H](O)c1ccc2c(c1)OCCO2)C1CCN(CCc2ccc(Cl)cc2)C1 (stereo partly drawn) [Compound 21E, 1-(4-chlorophenethyl)-N-((1R,2R)-1-(2,3-dihydrobenzo[b][1,4]dioxin-6-yl)-1-hydroxy-3-(pyrrolidin-1-yl)propan-2-yl)pyrrolidine-3-carboxamide]",F (1-49% (or less than 50%))

# Other lines, results leading:
row,Data Range (% inhibition),SMILES
1,F (1-49% (or less than 50%)),"O=C(N[C@H](CN1CCCC1)[C@H](O)c1ccc2c(c1)OCCO2)[C@H]1CCN(c2ccc3cc(Cl)ccc3n2)C1 [Compound 99D, (S)-1-(6-chloroquinolin-2-yl)-N-((1R,2R)-1-(2,3-dihydrobenzo[b][1,4]dioxin-6-yl)-1-hydroxy-3-(pyrrolidin-1-yl)propan-2-yl)pyrrolidine-3-carboxamide]"
2,F (1-49% (or less than 50%)),"O=C(N[C@H](CN1CCCC1)[C@H](O)c1ccc2c(c1)OCCO2)[C@@H]1CCN(c2ccc(OC3CC3)c(Cl)c2)C1 [Compound 20, (R)-1-(3-chloro-4-cyclopropoxyphenyl)-N-((1R,2R)-1-(2,3-dihydrobenzo[b][1,4]dioxin-6-yl)-1-hydroxy-3-(pyrrolidin-1-yl)propan-2-yl)pyrrolidine-3-carboxamide]"
3,F (1-49% (or less than 50%)),"CC1(C)CCc2ccc(N3CC[C@H](C(=O)N[C@H](CN4CCCC4)[C@H](O)c4ccc5c(c4)OCCO5)C3)cc2O1 [Compound 71F, (S)-N-((1R,2R)-1-(2,3-dihydrobenzo[b][1,4]dioxin-6-yl)-1-hydroxy-3-(pyrrolidin-1-yl)propan-2-yl)-1-(2,2-dimethylchroman-7-yl)pyrrolidine-3-carboxamide]"
4,F (1-49% (or less than 50%)),"O=C(N[C@H](CN1CCCC1)[C@H](O)c1ccc2c(c1)OCCO2)C1CCN(c2ccccn2)C1 (stereo partly drawn) [Compound 22C, N-((1R,2R)-1-(2,3-dihydrobenzo[b][1,4]dioxin-6-yl)-1-hydroxy-3-(pyrrolidin-1-yl)propan-2-yl)-1-(pyridin-2-yl)pyrrolidine-3-carboxamide]"
5,E (50-74% (or less than 75%)),"O=C(N[C@H](CN1CCCC1)[C@H](O)c1ccc2c(c1)OCCO2)[C@H]1CCN(c2ccc3ccccc3c2)C1 [Compound 70A, (S)-N-((1R,2R)-1-(2,3-dihydrobenzo[b][1,4]dioxin-6-yl)-1-hydroxy-3-(pyrrolidin-1-yl)propan-2-yl)-1-(naphthalen-2-yl)pyrrolidine-3-carboxamide]"
